Test results as given in US20070184165A1, “Compositions and methods for improving the efficiency of preservatives in foods” (RAD NATURAL TECHNOLOGIES LTD., priority 2003, published 2007).

What was measured:
mold = experiment: Deterioration of whole wheat flour due to mold, measured by carbon dioxide formation; settings: for carbon dioxide formation: 22% moisture, 30° C.
Protocol: Whole wheat flour which contained 22% moisture was maintained at a temperature of 30° C. The deterioration due to mold formation was measured by determining the amount (%) of carbon dioxide which formed over a ten day period or until the maximum of 15-16% was attained, whichever was the sooner.

salmonella = experiment: Inhibition of salmonella growth; type: cell-based; settings: control growth at 8 hours = 100%
Protocol: The inhibition of salmonella growth was determined for the title combination and this was compared with control (absence of inhibitors) and using separately, sodium rosmarinate and sodium acetate. The results are as follows, comparing the inhibition of growth effect of inhibitors, control growth being taken arbitrarily at 8 hours, as 100%: […]

[1] = Freshness of cured beef by formation of malondialdehyde
Protocol: (d) Cured beef was treated with “Origanox™ WS-A” (b(ii), above). The thus-treated cured beef product contained approximately 32.5 ppm sodium rosmarinate and 500 ppm ascorbic acid. The higher proportion of ascorbic acid in this case was to inhibit the formation of toxic nitrosamines. The product was tested for freshness as evidenced by the formation of malondialdehyde after 1, 4 and 7 days, and compared with control (no treatment) and with other treatments.

[2] = Inhibition of oxidative deterioration in soybean oil at 180° C. (hexanal and trans-decadienal formed); settings: four hours, 0.02%
Protocol: (c) Inhibition of oxidative deterioration in soybean oil at 180° C. (four hours) was determined by dissolving Origanox™ OS-A, rosemary oil or TBHQ in the soybean oil and determining the amount of hexanal and trans-decadienal formed in the product, compared with a control in which no antioxidant was used.

[3] = Myoglobin stabilization (colour intensity) in treated fresh beef; settings: after seven days, 250 ppm
Protocol: (c) Fresh beef was treated, by injection, with “Origanox™ WS-A” (b)(i), above. The thus-treated fresh beef product contained approximately 32.5 ppm sodium rosmarinate and 250 ppm ascorbic acid. The product was tested for myoglobin stabilization by measuring absorption, i.e. intensity of color, at 542 nm, after seven days.

CCC(=O)[O-].CCC(=O)[O-].[Ca+2] [Ca propionate, calcium propionate]
time until maximum % carbon dioxide (maximum deterioration) was reached (mold; 0.2%): 7 to 8 days | carbon dioxide formation (mold; Day 0, 0.2%): 0.54% | carbon dioxide formation (mold; Day 1, 0.2%): 0.81% | carbon dioxide formation (mold; Day 2, 0.2%): 1.1% | carbon dioxide formation (mold; Day 3, 0.2%): 1.3% | carbon dioxide formation (mold; Day 4, 0.2%): 2.0% | carbon dioxide formation (mold; Day 5, 0.2%): 3.2% | carbon dioxide formation (mold; Day 6, 0.2%): 6.5% | carbon dioxide formation (mold; Day 7, 0.2%): 14.6% | carbon dioxide formation (mold; Day 8, 0.2%): 15%

CC(=O)[O-].[Na+] [Sodium acetate]
% Growth (salmonella; 4 hours, 1.0%): 33% | % Growth (salmonella; 4 hours, 2.0%): 17% | % Growth (salmonella; 8 hours, 1.0%): 75% | % Growth (salmonella; 8 hours, 2.0%): 62%

O=C(/C=C/c1ccc(O)c(O)c1)O[C@H](Cc1ccc(O)c(O)c1)C(=O)O [sodium rosmarinate]
Formation of malondialdehyde ([1]; day 1, 32.5 ppm): 0.798 mg/kg | Formation of malondialdehyde ([1]; day 4, 32.5 ppm): 1.097 mg/kg | Formation of malondialdehyde ([1]; day 7, 32.5 ppm): 1.327 mg/kg

CC(C)(C)c1cc(O)ccc1O [TBHQ]
% Inhibition [2]: 32%

O=C1O[C@H]([C@@H](O)CO)C(O)=C1O [ascorbic acid]
Formation of malondialdehyde ([1]; day 1, 500 ppm): 0.788 mg/kg | Formation of malondialdehyde ([1]; day 4, 500 ppm): 1.224 mg/kg | Formation of malondialdehyde ([1]; day 7, 500 ppm): 1.944 mg/kg | absorption at 542 nm [3]: 0.513
